Test results from paper PMC10545747, “Development of cyclopeptide inhibitors of cGAS targeting protein-DNA interaction and phase separation” (Nature Communications, 2023).
“And” between values parts separate entries of the source, which are not always exact repeats. Equal entries are not always repeated. Square brackets hold non-standard residues; d marks the D form. Peptide text beside a SMILES is read from it.

Columns and labels:
[1] = target: T1, recombinant human cGAS enzyme (hcGAS-ΔN, residues 147–522) (Homo sapiens, UniProt Q8N884); experiment: RNA-based fluorescent biosensor assay of cGAS activity (2',3'-cGAMP formation), in vitro screening; assay type: biochemical; conditions: for Remaining activity (%), Fig. 1a source data / remaining activity at 20 µM: 20 μM, replicate values; for remaining activity at 20 µM: read-out: Remaining activity (%), Fig. 1a source data; for Inhibition % / inhibition at 20 µM: peptides screened at 20 μM, Supplementary Table 1 / Fig. S5b; for Inhibition %: 20 µM; for inhibition at 20 µM: read-out: Inhibition %
T1 construct: N-terminally truncated human cGAS (hcGAS-ΔN, residues 147–522); 6xHis-SUMO (N, cleaved yes); made in house; host or cells: Escherichia coli BL21 (DE3)
Method in brief: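 In 40 mM Tris-HCl pH 7.5, 100 mM NaCl, 10 mM MgCl2, ISD (0.5 μM) started the reaction with hcGAS-ΔN (1.5 μM), ATP (1 mM) and GTP (1 mM). Incubation was 2 h at 37 °C, with compounds screened at 20 μM. 2',3'-cGAMP formed was quantified with an RNA-based fluorescent biosensor.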

[2] = tested on: dsDNA-stimulated THP1 cells; experiment: qPCR of IFNB1/CXCL10/IL6 mRNA in THP1 cells stimulated by dsDNA (ISD, HSV60mer); assay type: cell-based, human; conditions: THP1, dsDNA 6 h; hits 10 μM; replicate values
Text: (§1) To screen direct cGAS inhibitors targeting protein-DNA interface from our developed focused library of macrocyclic peptides, we applied an RNA-based fluorescent biosensor for 2’,3’-cGAMP to detect cGAS activity in vitro (Supplementary Fig. 1a)[49]. The formation of 2’,3’-cGAMP from ATP and GTP was catalyzed by recombinant human cGAS enzyme (hcGAS-ΔN, residues 147–522, Supplementary Fig. 1b) in the presence of ISD (interferon stimulatory DNA, a 45-bp dsDNA), which was readily quantified by the RNA-based fluorescent biosensor and was further confirmed by ion exchange chromatography (Supplementary Fig. 1c). […] Subsequently, a total of 90 macrocyclic peptides were screened at a concentration of 20 μM (Fig. 1a and Supplementary Fig. 1e), and 4 hits (XQ2, XQ8, XQ19, and XQ46) were obtained for further testing at a cut-off of 40% inhibition (Supplementary Table 1). To evaluate the inhibitory effect of the hits against cGAS in cells, we employed real-time quantitative PCR (qPCR) to examine mRNA levels of IFNΒ1 in THP1 cells. The reported cGAS inhibitor RU.521 was used as the positive control, and the non-active peptide XQ28 in the screening assay was used as the negative control. […] The inhibition of cGAS by these hits was further confirmed in the reporter cell line THP1-Lucia ISG (Invivogen) that expresses secreted luciferase induced by an IRF3-inducible ISG54 promoter (Fig. 1c). The discrepancy between the inhibitory effect of the hits in protein and cellular assays may be attributed to their different cellular permeability.
The indicated cells were stimulated with either ISD (Sangon Biotech), HSV-1 (Provided by Dr. Zhengfan Jiang), HSV60mer (Sangon Biotech), SATE-cddA[70], 2’3’-cGAMP (Invivogen, Cat# tlrl-nacga23-1), ADU-S100 (MedChemExpress, Cat# HY-12885A) or Poly(I:C) (Invivogen, Cat# tlrl-pic) after XQ2 or XQ2B treatment. Total RNA was isolated from indicated cells that incubated with the drugs for indicated time or mice tissues by using NucleoZOL reagent (MACHEREY-NAGEL) according to the manufacturer’s instructions. The quantifications of mRNA levels were carried out by real-time PCR using a PerfectStart® Uni RT&qPCR Kit (TransGen Biotech) on the QuantStudio 5 qPCR machine (Applied Biosystems). Samples were carried out in triplicate and the target CT values were normalized to GAPDH CT values. Primers of qPCR used in this study can be found in Supplementary Table S2.

THP1-Lucia ISG cells = experiment: Luciferase reporter assay, dsDNA stimulation; assay type: cell-based, human; design: Type I interferon response, luciferase activity, Fig. 1c / luciferase activity, Fig. 2a: scale not given here; conditions: dsDNA 24 h; replicate values
Text: as §1
THP1-Lucia ISG cells (Invivogen) were seeded into a 96-well plate and incubated with RU.521 (Invivogen) or XQ2 for the indicated time, and then transfected with dsDNA by lipofectamine 2000 (Invitrogen) or infected by HSV-1 with the indicated titer for 24 h. The supernatant was collected and 50 μL QUANTI-Luc Luciferase reagent (Invivogen) was added to 20 μL supernatants per well, and luciferase luminescence was detected by a microplate reader (BioTek Synergy H1) immediately.

T1 sequence (Q8N884 147-522, stated change not applied): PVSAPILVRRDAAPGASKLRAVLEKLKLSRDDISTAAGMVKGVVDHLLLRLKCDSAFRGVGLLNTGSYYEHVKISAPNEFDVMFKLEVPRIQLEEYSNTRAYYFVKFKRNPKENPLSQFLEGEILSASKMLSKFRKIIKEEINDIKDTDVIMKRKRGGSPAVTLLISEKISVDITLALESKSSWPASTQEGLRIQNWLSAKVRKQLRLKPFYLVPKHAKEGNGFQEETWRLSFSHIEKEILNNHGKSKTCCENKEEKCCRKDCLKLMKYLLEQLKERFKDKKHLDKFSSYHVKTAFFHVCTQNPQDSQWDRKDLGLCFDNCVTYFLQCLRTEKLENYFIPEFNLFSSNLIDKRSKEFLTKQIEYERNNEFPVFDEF

SMILES	Remaining activity (%), Fig. 1a source data [1]	remaining activity at 20 µM [1] [%]	Inhibition % [1] [%]	inhibition at 20 µM [1] [%]	IFNB1 mRNA, qPCR, Fig. 1b [2]	Type I interferon response, luciferase activity, Fig. 1c (THP1-Lucia ISG cells)	cGAS activity in the biosensor assay [1]
CC(C)C[C@@H]1NC(=O)[C@H](CCCNC(=N)N)NC(=O)[C@H](C(C)C)NC(=O)[C@@H]2CCCN2C(=O)[C@@H](Cc2ccccc2)NC(=O)[C@H](C)NC(=O)[C@H](CCCNC(=N)N)NC(=O)[C@H](C(C)C)NC(=O)[C@H](C)NC(=O)[C@@H](Cc2ccccc2)NC1=O [XQ19, Cyclo (AfPVRLfAVR)] (cyclo(AVRA[dF]PVRL[dF]))	39.7338% and 39.7351%	40.1	≥ 40	60	69.3649 and 64.1779 and 70.7063	0.9185 and 0.6328 and 0.8726	
N=C(N)NCCC[C@@H]1NC(=O)[C@@H]2CCCN2C(=O)[C@H](Cc2ccccc2)NC(=O)[C@H](CCCNC(=N)N)NC(=O)[C@@H]2CCCN2C(=O)[C@H](Cc2ccccc2)NC1=O [XQ28, Cyclo (RFPRFP)] (cyclo(FPRFPR))	109.037% and 108.058%	107		0	80.7818 and 80.352 and 88.8517	1.441 and 0.666 and 1.434	non-active
CC(C)C[C@@H]1NC(=O)[C@H](CC(C)C)NC(=O)[C@H](C(C)C)NC(=O)[C@@H]2CCCN2C(=O)[C@@H](Cc2ccccc2)NC(=O)[C@H](C)NC(=O)[C@H](CCCNC(=N)N)NC(=O)[C@H](C(C)C)NC(=O)[C@@H]2CCCN2C(=O)[C@@H](Cc2ccccc2)NC1=O [XQ46, Cyclo (AfPVLLfPVR)] (cyclo(A[dF]PVLL[dF]PVR))	43.44% and 43.4055%	43.8	≥ 40	56	39.5997 and 41.1038 and 45.9315	0.8903 and 0.5111 and 0.5713	comparable inhibitory activity as that of XQ2, XQ8 and XQ19
